Source: article PMC9721423, “Novel benzo chromene derivatives: design, synthesis, molecular docking, cell cycle arrest, and apoptosis induction in human acute myeloid leukemia HL-60 cells” (Journal of Enzyme Inhibition and Medicinal Chemistry, 2022)
Like-named read-outs stand apart in the source and are kept apart here.

Experiments:
Assay in all cases: cells
Set-up in all cases: species or system NCI-60 human tumour cell lines; NCI-60 five-dose growth inhibition screen, sulforhodamine B protein stain
[1] = test system: NCI-H226; conditions: Homo sapiens, NCI-H226, 48 h
Description: (§1) All the newly synthesised 28 compounds were selected for single-dose testing. NCI60 single-dose testing is performed in all 60 cell lines according to the reported assay (National Cancer Institute, https://dtp.cancer.gov/) (National Cancer Institute https://dtp.cancer.gov/discovery_development/nci-60/), compounds were dissolved in DMSO: glycerol […] and are stored in a −70 °C freezer. The prepared compounds were added at single concentration of 1 0^−5 M and the culture was incubated for 48 h. End point determinations were made with a protein binding dye, sulforhodamine B (SRB). The human tumour cell lines were derived from nine different cancer types: leukaemia, melanoma, lung, colon, central nervous system (CNS), ovarian, renal, prostate, and breast cancers. Dose–response curves for these compounds were created by plotting the percentage growth (PGs or % growth) against log10 of the corresponding concentration for every cell line. Three response parameters, GI50 (Median Growth Inhibitory Concentration), TGI (Total Growth Inhibitory Concentration), and LC50 (Median Lethal Concentration) were calculated[54] (National Cancer Institute, https://dtp.cancer.gov/discovery_development/nci-60/) (National Cancer Institute, https://dtp.cancer.gov/)[55] for compounds 5a and 6a. […] Furthermore, the average sensitivity of all cell lines towards the compound is termed as the full panel mean graph midpoints (MG-MID). The ratio obtained by dividing the full panel mean graph midpoints (MG-MID) concentration by the individual subpanel MG-MID concentrations (obtained as the average sensitivity of all cell lines of a particular subpanel towards the test compound) is considered a criterion for the compound selectivity towards the corresponding cell line. Ratios greater than 6 indicate high selectivity while ratios between 3 and 6 refer to moderate selectivity whereas compounds not meeting either of these criteria were rated non-selective[56].

[2] = test system: A498; conditions: Homo sapiens, A498, 48 h
Description: as §1

[3] = test system: SK-MEL-5; conditions: Homo sapiens, SK-MEL-5, 48 h
Description: as §1

[4] = test system: IGROV1; conditions: Homo sapiens, IGROV-1, 48 h
Description: as §1

[5] = test system: DU-145; conditions: Homo sapiens, DU-145, 48 h
Description: as §1

[6] = test system: HT29; conditions: Homo sapiens, HT-29, 48 h
Description: as §1

[7] = test system: HCC-2998; conditions: Homo sapiens, HCC 2998, 48 h
Description: as §1

[8] = test system: NCI-H522; conditions: Homo sapiens, NCI-H522, 48 h
Description: as §1

[9] = test system: MCF7; conditions: Homo sapiens, MCF7, 48 h
Description: as §1

[10] = test system: UACC-62; conditions: Homo sapiens, UACC-62, 48 h
Description: as §1

[11] = test system: SN12C; conditions: Homo sapiens, SN12C, 48 h
Description: as §1

[12] = test system: MDA-MB-231/ATCC; conditions: Homo sapiens, MDA-MB-231, 48 h
Description: as §1

[13] = test system: MDA-MB-468; conditions: Homo sapiens, MDA-MB-468, 48 h
Description: as §1

[14] = test system: OVCAR-3; conditions: Homo sapiens, OVCAR-3, 48 h
Description: as §1

[15] = test system: KM12; conditions: Homo sapiens, KM12, 48 h
Description: as §1

[16] = test system: HOP-62; conditions: Homo sapiens, HOP-62, 48 h
Description: as §1

[17] = test system: RPMI-8226; conditions: Homo sapiens, RPMI-8226, 48 h
Description: as §1

## CC(=O)NC1=C(C#N)C(c2ccccc2)c2ccc3ccccc3c2O1 (stereo not shown) [6a, N-(3-Cyano-4-phenyl-4H-benzo[h]chromen-2-yl)acetamide]
[1]; read-out: GI50 6a
  GI50: 1850 nM
[2]; read-out: GI50 6a
  GI50: 200 nM
[3]; read-out: GI50 6a
  GI50: 360 nM
[4]; read-out: GI50 6a
  GI50: 530 nM
[5]; read-out: GI50 6a
  GI50: 730 nM
[6]; read-out: GI50 6a
  GI50: 380 nM
[7]; read-out: GI50 6a
  GI50: 1430 nM
[8]; read-out: GI50 6a
  GI50: 220 nM
[9]; read-out: GI50 6a
  GI50: 470 nM
[10]; read-out: GI50 6a
  GI50: 710 nM
[11]; read-out: GI50 6a
  GI50: 700 nM
[12]; read-out: GI50 6a
  GI50: 1250 nM
[13]; read-out: GI50 6a
  GI50: 240 nM
[14]; read-out: GI50 6a
  GI50: 340 nM
[15]; read-out: GI50 6a
  GI50: 430 nM
[16]; read-out: GI50 6a
  GI50: 690 nM
[17]; read-out: GI50 6a
  GI50: 410 nM

## N=C(NO)C1=C(N)Oc2c(ccc3ccccc23)C1c1ccccc1 (stereo not shown) [5a, 2-Amino-4-phenyl-N-hydroxy-4H-benzo[h]chromene-3-carboxamidine]
[1]; read-out: GI50 5a
  GI50: 8010 nM
[2]; read-out: GI50 5a
  GI50: 110 nM
[3]
  GI50: 320 nM
[4]; read-out: GI50 5a
  GI50: 330 nM
[5]; read-out: GI50 5a
  GI50: 460 nM
[6]; read-out: GI50 5a
  GI50: 480 nM
[7]; read-out: GI50 5a
  GI50: 370 nM
[8]; read-out: GI50 5a
  GI50: 60 nM
[9]; read-out: GI50 5a
  GI50: 210 nM
[10]; read-out: GI50 5a
  GI50: 50 nM
[11]; read-out: GI50 5a
  GI50: 530 nM
[12]; read-out: GI50 5a
  GI50: 630 nM
[13]; read-out: GI50 5a
  GI50: 1990 nM
[14]; read-out: GI50 5a
  GI50: 180 nM
[15]; read-out: GI50 5a
  GI50: 220 nM
[16]; read-out: GI50 5a
  GI50: 380 nM
[17]; read-out: GI50 5a
  GI50: 380 nM
